What was measured:
Assay in all cases: relative viability (nuclei count vs DMSO), 5 days (fraction); higher = more cells survive
NCI-H1563 = tested on: NCI-H1563
How it was run: (§1)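 Lung cancer cell lines in 1536-well plates got either a single drug or a fixed anchor-drug dose together with five library-drug doses (not always all listed) in √10 steps, by pin tool, on the day after seeding. Nuclei were counted after 5 days, and relative viability is the treated-to-vehicle ratio of nuclei counts. Values are medians of duplicate plates.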

NCI-H1623 = tested on: NCI-H1623
How it was run: as §1

NCI-H2342 = tested on: NCI-H2342
How it was run: as §1

NCI-H522 = tested on: NCI-H522
How it was run: as §1

SW 900 = tested on: SW 900
How it was run: as §1

A549 = tested on: A549
How it was run: as §1

Calu-6 = tested on: Calu-6
How it was run: as §1

EBC-1 = tested on: EBC-1
How it was run: as §1

IA-LM = tested on: IA-LM
How it was run: as §1

NCI-H1299 = tested on: NCI-H1299
How it was run: as §1

NCI-H1648 = tested on: NCI-H1648
How it was run: as §1

NCI-H1703 = tested on: NCI-H1703
How it was run: as §1

O=c1[nH]c2ccccc2n1C1CCN(CCCC(c2ccc(F)cc2)c2ccc(F)cc2)CC1 [Pimozide] + Cc1nc(Nc2ncc(C(=O)Nc3c(C)cccc3Cl)s2)cc(N2CCN(CCO)CC2)n1 [Dasatinib] (partner 0.075 µM)
relative viability (NCI-H1563; first compound 0.08 µM): 0.474 | relative viability (NCI-H1563; first compound 0.253 µM): 0.429 | relative viability (NCI-H1563; first compound 0.8 µM): 0.484 | relative viability (NCI-H1563; first compound 2.53 µM): 0.426 | relative viability (NCI-H1563; first compound 8 µM): 0.459 | relative viability (NCI-H1623; first compound 0.253 µM): 0.597 | relative viability (NCI-H1623; first compound 0.8 µM): 0.536 | relative viability (NCI-H1623; first compound 2.53 µM): 0.52 | relative viability (NCI-H1623; first compound 8 µM): 0.56 | relative viability (NCI-H2342; first compound 0.08 µM): 0.33 | relative viability (NCI-H2342; first compound 0.253 µM): 0.337 | relative viability (NCI-H2342; first compound 0.8 µM): 0.339 | relative viability (NCI-H2342; first compound 2.53 µM): 0.299 | relative viability (NCI-H2342; first compound 8 µM): 0.323 | relative viability (NCI-H522; first compound 0.08 µM): 0.856 | relative viability (NCI-H522; first compound 0.253 µM): 0.883 | relative viability (NCI-H522; first compound 0.8 µM): 0.81 | relative viability (NCI-H522; first compound 2.53 µM): 0.924 | relative viability (NCI-H522; first compound 8 µM): 0.86 | relative viability (SW 900; first compound 0.08 µM): 0.51 | relative viability (SW 900; first compound 0.253 µM): 0.816 | relative viability (SW 900; first compound 0.8 µM): 0.37 | relative viability (SW 900; first compound 2.53 µM): 0.551 | relative viability (SW 900; first compound 8 µM): 0.567

O=c1[nH]c2ccccc2n1C1CCN(CCCC(c2ccc(F)cc2)c2ccc(F)cc2)CC1 [Pimozide] + CCNC(=O)c1noc(-c2cc(C(C)C)c(O)cc2O)c1-c1ccc(CN2CCOCC2)cc1 [Luminespib] (partner 0.01 µM)
relative viability (NCI-H1563; first compound 0.08 µM): 0.511 | relative viability (NCI-H1563; first compound 0.253 µM): 0.513 | relative viability (NCI-H1563; first compound 0.8 µM): 0.516 | relative viability (NCI-H1563; first compound 2.53 µM): 0.549 | relative viability (NCI-H1563; first compound 8 µM): 0.496 | relative viability (NCI-H1623; first compound 0.253 µM): 0.515 | relative viability (NCI-H1623; first compound 0.8 µM): 0.487 | relative viability (NCI-H1623; first compound 2.53 µM): 0.521 | relative viability (NCI-H1623; first compound 8 µM): 0.447 | relative viability (NCI-H2342; first compound 0.08 µM): 0.616 | relative viability (NCI-H2342; first compound 0.253 µM): 0.685 | relative viability (NCI-H2342; first compound 0.8 µM): 0.611 | relative viability (NCI-H2342; first compound 2.53 µM): 0.739 | relative viability (NCI-H2342; first compound 8 µM): 0.696 | relative viability (NCI-H522; first compound 0.08 µM): 1.01 | relative viability (NCI-H522; first compound 0.253 µM): 1.08 | relative viability (NCI-H522; first compound 0.8 µM): 1.21 | relative viability (NCI-H522; first compound 2.53 µM): 1.21 | relative viability (NCI-H522; first compound 8 µM): 1.24 | relative viability (SW 900; first compound 0.08 µM): 0.163 | relative viability (SW 900; first compound 0.253 µM): 0.157 | relative viability (SW 900; first compound 0.8 µM): 0.18 | relative viability (SW 900; first compound 2.53 µM): 0.192 | relative viability (SW 900; first compound 8 µM): 0.181

O=c1[nH]c2ccccc2n1C1CCN(CCCC(c2ccc(F)cc2)c2ccc(F)cc2)CC1 [Pimozide] + O=C(c1cc(Cc2n[nH]c(=O)c3ccccc23)ccc1F)N1CCN(C(=O)C2CC2)CC1 [Olaparib] (partner 8 µM)
relative viability (A549; first compound 0.08 µM): 0.237 | relative viability (A549; first compound 0.253 µM): 0.319 | relative viability (A549; first compound 0.8 µM): 0.271 | relative viability (A549; first compound 2.53 µM): 0.34 | relative viability (A549; first compound 8 µM): 0.347 | relative viability (Calu-6; first compound 0.08 µM): 0.651 | relative viability (Calu-6; first compound 0.253 µM): 0.568 | relative viability (Calu-6; first compound 0.8 µM): 0.597 | relative viability (Calu-6; first compound 2.53 µM): 0.575 | relative viability (Calu-6; first compound 8 µM): 0.425 | relative viability (EBC-1; first compound 0.08 µM): 0.651 | relative viability (EBC-1; first compound 0.253 µM): 0.695 | relative viability (EBC-1; first compound 0.8 µM): 0.723 | relative viability (EBC-1; first compound 2.53 µM): 0.626 | relative viability (EBC-1; first compound 8 µM): 0.676 | relative viability (IA-LM; first compound 0.08 µM): 0.84 | relative viability (IA-LM; first compound 0.253 µM): 0.737 | relative viability (IA-LM; first compound 0.8 µM): 0.873 | relative viability (IA-LM; first compound 2.53 µM): 0.82 | relative viability (IA-LM; first compound 8 µM): 0.812 | relative viability (NCI-H1299; first compound 0.08 µM): 0.983 | relative viability (NCI-H1299; first compound 0.253 µM): 0.973 | relative viability (NCI-H1299; first compound 0.8 µM): 0.931 | relative viability (NCI-H1299; first compound 2.53 µM): 0.948 | relative viability (NCI-H1299; first compound 8 µM): 0.898 | relative viability (NCI-H1648; first compound 0.08 µM): 0.805 | relative viability (NCI-H1648; first compound 0.8 µM): 0.522 | relative viability (NCI-H1648; first compound 2.53 µM): 0.619 | relative viability (NCI-H1648; first compound 8 µM): 1.1 | relative viability (NCI-H1703; first compound 0.08 µM): 0.352 | relative viability (NCI-H1703; first compound 0.253 µM): 0.324 | relative viability (NCI-H1703; first compound 0.8 µM): 0.374 | relative viability (NCI-H1703; first compound 2.53 µM): 0.439 | relative viability (NCI-H1703; first compound 8 µM): 0.341 | relative viability (NCI-H2342; first compound 0.08 µM): 0.438 | relative viability (NCI-H2342; first compound 0.253 µM): 0.355 | relative viability (NCI-H2342; first compound 0.8 µM): 0.397 | relative viability (NCI-H2342; first compound 2.53 µM): 0.403 | relative viability (NCI-H2342; first compound 8 µM): 0.411 | relative viability (NCI-H522; first compound 0.08 µM): 0.569 | relative viability (NCI-H522; first compound 0.253 µM): 0.54 | relative viability (NCI-H522; first compound 0.8 µM): 0.751 | relative viability (NCI-H522; first compound 2.53 µM): 0.592 | relative viability (NCI-H522; first compound 8 µM): 0.72 | relative viability (SW 900; first compound 0.08 µM): 0.955 | relative viability (SW 900; first compound 0.253 µM): 0.893 | relative viability (SW 900; first compound 2.53 µM): 0.839 | relative viability (SW 900; first compound 8 µM): 0.892
